{
  "source": "patent US20240392250A1",
  "about": "“HIGH-THROUGHPUT SELECTION AND FABRICATION OF BIOMATERIAL-ENCAPSULATED CELL MASS AND USES THEREOF” (BioArchitec Group Limited, priority 2022, published 2024)",
  "tested_on": "HT-29 spheroids encapsulated BECM",
  "assay": "Drug response of HT-29 spheroid BECMs by CELLTITER GLO 3D cell viability assay",
  "assay_type": "cell-based",
  "conditions": "biomaterial-encapsulated HT-29 cancer cell spheroids; Osimertinib 0, 2, 4 and 8 μM; 72 hrs at 37° C.; n=10; FIG. 7",
  "excerpt": "Commercially available 3D cell viability assay, CELLTITER GLO (Promega Corp.), was used to determine the cell viability of the BECMs.",
  "data": [
    {"smiles": "C=CC(=O)Nc1cc(Nc2nccc(-c3cn(C)c4ccccc34)n2)c(OC)cc1N(C)CCN(C)C", "note": "[Osimertinib]", "values": [
      {"measurement": "cell viability of the BECMs (dose-response)", "result": "a typical 3D cell culture viability dose-response was obtained"}
    ]}
  ]
}
